Measured values taken from paper PMC4106271 (Journal of Medicinal Chemistry, 2014).

Experiment: Estimation of plasma levels after ip application (UHPLC-MS/MS)
Type: in vivo, mice
Settings: mouse plasma
Experimental: At each time point, mice were euthanized and blood samples (500–800 μL) were collected and compiled into ethylenediaminetetraacetic acid (EDTA)-coated microtubes (1.6 mg of EDTA/sample) and centrifuged at 12 000 rpm for 5 min at 4 °C. Plasma samples were transferred into 1.5 mL tubes and stored at −80 °C until analysis.
Plasma calibrators were prepared by spiking corresponding stock solutions into a blank plasma sample.
Samples were vortexed at 1400 rpm for 10 min and then centrifuged at 13200g for 20 min at 10 °C. The supernatant was transferred into a 96-deep-well plate for drying under nitrogen gas flow (Evaporex EVX-96, Apricot Designs, Monrovia, CA) and redissolved in 200 μL of injection solvent (65% 10 mM ammonium formate + 0.05% formic acid, 35% acetonitrile + 0.05% formic acid) before MS/MS analysis.
Separation was performed at 55 °C on a Kinetex XB-C18 column, 100 × 2.1 mm, 1.7 μm particle size (Phenomenex; Torrance, CA); mobile phase of (A) 0.05% formic acid in 10 mM ammonium formate and (B) 0.05% formic acid in ACN, gradient 40% B for 1 min, linear gradient to reach 88% B after 5.3 min, shifted to 100% B for 1 min, and back to equilibrium condition of 40% B for 0.7 min; flow rate of 0.5 mL/min; total run time of 7 min. Sample injected volume was 1 μL and autosampler was set at 10 °C. Needle wash solution was MeOH/ACN/IPA/H2O (1:1:1:1 v/v/v/v). Flexible cube was set at a flow rate of 1 mL/min for 20 s.

## CCCN(CCC)C(=O)/C=C/C=C/c1ccc2c(c1)OCO2 [Compound 23, (2E,4E)-5-(1,3-benzodioxol-5-yl)-N,N-dipropyl-2,4-pentadienamide]
1 mg/kg body weight ip
  mean plasma concn: 60.6 ± 14.5 ng/mL
3 mg/kg body weight ip
  mean plasma concn: 194.0 ± 50.2 ng/mL
10 mg/kg body weight ip
  mean plasma concn: 593.0 ± 92.4 ng/mL
